# Assay results from patent US20080004290A1, “Anti-Cancer Agents” (THE UNIVERSITY OF QUEENSLAND, priority 2003, published 2008).
# Where two headings read alike, the source gives them in different places.
# What was measured:
# Assay type in all cases: cell-based, human
# MM96L melanoma cells = experiment: Cell survival assay (clonogenic survival, SRB); conditions: for IC50: Homo sapiens, MM96L; for Selectivity: IC50 (NFF)/IC50 (MM96L); for SI (Selectivity Index = IC50 (NFF)/IC50 (MM96L)): NFF vs MM96L; for Selectivity Index MM96L: Table 13, S enantiomer, IC50(NFF)/IC50(cancer cell line)
# In short: (§1)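 Cells (5×10^3/well, RPMI 1640 with 10% FCS) treated 24 h with compound at 0.01-10 μg/mL, then washed and grown 72 h drug-free at 37 °C, 5% CO2. Survival read by SRB staining after methylated-spirit fixation, absorbance 564 nm.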
# SkMel28 melanoma cells = experiment: Cell survival assay (SRB); conditions: for IC50: Homo sapiens; for Selectivity Index SK-MEL-28: Table 13, S enantiomer, IC50(NFF)/IC50(cancer cell line)
# Protocol: (§2) Cell Lines and Culture Medium. All cell lines used in this study have been described previously (Parsons et al., 1986; Todaro et al., 1980; Glenn et al., 2004). All cell lines were cultured in 10% heat-inactivated foetal calf serum (CSL, Australia) in RPMI 1640 medium supplemented with 100 U/mL penicillin, 100 μg/mL streptomycin, and 3 mM HEPES at 5% CO2, 99% humidity at 37° C. Primary human fibroblasts were obtained from neonatal foreskins and cultured in the above medium. Routine mycoplasma tests were performed using Hoechst stain^i and were always negative.
# (§3) Cell Survival Assay. Cells were plated into 96-well microtitre plates at 5×10^3 cells/well, and allowed to adhere overnight. Test compounds were added to culture medium at the indicated concentrations, and plates incubated in the above conditions for 24 hours. Following this incubation period, compounds and media were removed, and replaced with fresh culture medium. Cells were then grown for a further 72 hours before assay using sulforhodamine B (SRB; Sigma, St. Louis, Mo.) as previously described. Briefly, the culture medium was removed from the 96-well microtitre plates and the plates washed twice with phosphate buffered saline (PBS), before the cells were fixed with methylated spirits for 15 minutes. The plates were then rinsed with tap water and the fixed cells stained with 50 μL/well of SRB solution (0.4% sulforhodamine B (w/v) in 1% (v/v) acetic acid) over a period of 1 hour. The SRB solution was then removed from the wells and the plates rapidly washed two times with 1% (v/v) acetic acid. Protein bound dye was then solubilised with the addition of 100 μL of 10 mM unbuffered Tris, and incubated for 15 min at 25° C. Plates were then read at 564 nm on a VERSA max tunable microplate reader (Molecular Devices, Sunnyvale, Calif.).
# (§4) For comparison their results are also shown for MM96L and NFF cell lines.
# JAM ovarian cancer cells = experiment: Cell survival assay (SRB); conditions: for IC50: Homo sapiens; for Selectivity Index JAM: Table 13, S enantiomer, IC50(NFF)/IC50(cancer cell line)
# Protocol: as §2, §3, §4
# [1] = test system: CI-80-13S ovarian cancer cells; experiment: Cell survival assay (SRB); conditions: for IC50: Homo sapiens; for Selectivity Index CI80-13S: Table 13, S enantiomer, IC50(NFF)/IC50(cancer cell line)
# Protocol: as §2, §3, §4
# [2] = test system: DU145 prostate cancer cells; experiment: Cell survival assay (SRB); conditions: for IC50: Homo sapiens, DU-145; for Selectivity Index DU145: Table 13, S enantiomer, IC50(NFF)/IC50(cancer cell line)
# Protocol: as §2, §3, §4
# [3] = test system: MCF-7 breast cancer cells; experiment: Cell survival assay (SRB); conditions: for IC50: Homo sapiens, MCF7; for Selectivity Index MCF-7: Table 13, S enantiomer, IC50(NFF)/IC50(cancer cell line)
# Protocol: as §2, §3, §4
# DO4 melanoma cells = experiment: Cell survival assay (SRB); conditions: Homo sapiens, DO4; Table 10; standard deviations in parentheses; read-out: Cell line IC50 (μM) DO4
# Protocol: as §2, §3, §4
# [4] = test system: NFF, neonatal foreskin fibroblasts; experiment: Cell survival assay (clonogenic survival, SRB), normal cells; conditions: Homo sapiens, Fibroblast
# In short: as §1
# PC-3 cells = experiment: Cell survival assay (SRB); conditions: for IC50: Homo sapiens, PC-3, read-out: Cytoselectivities (nM) PC-3; for Selectivity Index PC-3: Table 13, S enantiomer, IC50(NFF)/IC50(cancer cell line)
# Protocol: as §2, §3
# H520 cells = experiment: Cell survival assay (SRB); conditions: for IC50: Homo sapiens, NCI-H520, read-out: Cytoselectivities (nM) H520; for Selectivity Index H520: Table 13, S enantiomer, IC50(NFF)/IC50(cancer cell line)
# Protocol: as §2, §3
# HOP62 cells = experiment: Cell survival assay (SRB); conditions: for IC50: Homo sapiens, HOP-62, HOP62 (lung), read-out: Cytoselectivities (nM) HOP62; for Selectivity Index HOP62: Table 13, S enantiomer, IC50(NFF)/IC50(cancer cell line)
# Protocol: as §2, §3
# T-47D cells = experiment: Cell survival assay (SRB); conditions: for IC50: Homo sapiens, T47D, read-out: Cytoselectivities (nM) T-47D; for Selectivity Index T-47D: Table 13, S enantiomer, IC50(NFF)/IC50(cancer cell line)
# Protocol: as §2, §3
# HT29 cells = experiment: Cell survival assay (SRB); conditions: for IC50: Homo sapiens, HT-29, HT29 (colon), read-out: Cytoselectivities (nM) HT29; for Selectivity Index HT29: Table 13, S enantiomer, IC50(NFF)/IC50(cancer cell line)
# Protocol: as §2, §3
# A549 cells = experiment: Cell survival assay (SRB); conditions: for IC50: Homo sapiens, A549 (lung), read-out: Cytoselectivities (nM) A549; for Selectivity Index A549: Table 13, S enantiomer, IC50(NFF)/IC50(cancer cell line)
# Protocol: as §2, §3
# SK-MEL-5 cells = experiment: Cell survival assay (SRB); conditions: for IC50: Homo sapiens, SK-MEL-5, read-out: Cytoselectivities (nM) SK-MEL-5; for Selectivity Index SK-MEL-5: Table 13, S enantiomer, IC50(NFF)/IC50(cancer cell line)
# Protocol: as §2, §3
# Col208 cells = experiment: Cell survival assay (SRB); conditions: for IC50: Homo sapiens, Col208 (colon), read-out: Cytoselectivities (nM) Col208; for Selectivity Index Col208: Table 13, S enantiomer, IC50(NFF)/IC50(cancer cell line)
# Protocol: as §2, §3
# [5] = 24 h, Table 6, 24 hours with compound, further growth, SRB, read-out: IC50 (μM) MM96L
# [6] = Table 10, standard deviations in parentheses, read-out: Cell line IC50 (μM) MM96L
# [7] = SK-MEL-28, Table 10, standard deviations in parentheses, read-out: Cell line IC50 (μM) SkMel
# [8] = Table 10, standard deviations in parentheses, read-out: Cell line IC50 (μM) JAM
# [9] = C180-13S, Table 10, standard deviations in parentheses, read-out: Cell line IC50 (μM) C18013S
# [10] = Table 10, standard deviations in parentheses, read-out: Cell line IC50 (μM) DU145
# [11] = Table 10, standard deviations in parentheses, read-out: Cell line IC50 (μM) MCF7
# [12] = 24 h, Table 6, 24 hours with compound, further growth, SRB, read-out: IC50 (μM) NFF
# [13] = Table 10, standard deviations in parentheses, read-out: Cell line IC50 (μM) NFF
# [14] = MM96L melanoma, 24 h with compound, further 72 h growth, SRB, read-out: IC50 (uM) MM96L
# [15] = Table 12, read-out: Cytoselectivities (nM) MM96L
# [16] = SK-MEL-28 (melanoma), read-out: Cytoselectivities (nM) SK-MEL-28
# [17] = read-out: Cytoselectivities (nM) JAM
# [18] = read-out: Cytoselectivities (nM) CI80-13S
# [19] = DU145 (prostate), read-out: Cytoselectivities (nM) DU145
# [20] = MCF-7 (breast), read-out: Cytoselectivities (nM) MCF-7
# [21] = NFF normal fibroblasts, 24 h with compound, further 72 h growth, SRB, read-out: IC50 (uM) NFF
structure (smiles),measurement,setting,value
CN(C)c1ccc(C(=O)N[C@@H](CSCCCC(=O)NO)C(=O)Nc2ccc(-c3ccccc3)cc2)cc1 [Example 61],IC50,MM96L melanoma cells; [5],0.17 ± 0.05 µM
same,IC50,MM96L melanoma cells; [6],0.17 µM
same,Selectivity,MM96L melanoma cells; Table 6,1.9
same,IC50,SkMel28 melanoma cells; [7],1.11 µM
same,IC50,JAM ovarian cancer cells; [8],0.6 µM
same,IC50,[1]; [9],0.38 µM
same,IC50,[2]; [10],0.37 µM
same,IC50,[3]; [11],0.48 µM
same,IC50,DO4 melanoma cells,0.83 µM
same,IC50,[4]; [12],0.32 ± 0.05 µM
same,IC50,[4]; [13],0.32 µM
CN(C)c1ccc(C(=O)N[C@@H](CSCCCC(=O)NO)C(=O)Nc2cccnc2)cc1 [Example 78],IC50,MM96L melanoma cells; [5],2.1 ± 0.1 µM
same,IC50,MM96L melanoma cells; [6],0.51 µM
same,Selectivity,MM96L melanoma cells; Table 6,5.6
same,IC50,SkMel28 melanoma cells; [7],2.33 µM
same,IC50,JAM ovarian cancer cells; [8],2.3 µM
same,IC50,[1]; [9],1.36 µM
same,IC50,[2]; [10],1.06 µM
same,IC50,[3]; [11],0.97 µM
same,IC50,DO4 melanoma cells,2.48 µM
same,IC50,[4]; [12],11 ± 1 µM
same,IC50,[4]; [13],3.6 µM
O=C(/C=C/c1ccccc1)N[C@@H](CCCCCC(=O)NO)C(=O)Nc1cccc2cccnc12 [Example 146],IC50,MM96L melanoma cells; [14],0.021 µM
same,IC50,MM96L melanoma cells; [15],0.02 µM
same,IC50,"MM96L melanoma cells; most preferred compounds, exemplary examples, read-out: potency of IC50 against the MM96 melanoma cells",≤ 0.5 µM
same,SI (Selectivity Index = IC50 (NFF)/IC50 (MM96L)),MM96L melanoma cells,58.9
same,Selectivity Index MM96L,MM96L melanoma cells,63
same,IC50,PC-3 cells,109 nM
same,Selectivity Index PC-3,PC-3 cells,11
same,IC50,H520 cells,27 nM
same,Selectivity Index H520,H520 cells,46
same,IC50,HOP62 cells,65 nM
same,Selectivity Index HOP62,HOP62 cells,19
same,IC50,T-47D cells,20 nM
same,Selectivity Index T-47D,T-47D cells,63
same,IC50,HT29 cells,99 nM
same,Selectivity Index HT29,HT29 cells,13
same,IC50,A549 cells,73 nM
same,Selectivity Index A549,A549 cells,17
same,IC50,SK-MEL-5 cells,29 nM
same,Selectivity Index SK-MEL-5,SK-MEL-5 cells,43
same,IC50,Col208 cells,141 nM
same,Selectivity Index Col208,Col208 cells,9
same,IC50,SkMel28 melanoma cells; [16],0.037 µM
same,Selectivity Index SK-MEL-28,SkMel28 melanoma cells,34
same,IC50,JAM ovarian cancer cells; [17],0.049 µM
same,Selectivity Index JAM,JAM ovarian cancer cells,25
same,IC50,[1]; [18],0.028 µM
same,Selectivity Index CI80-13S,[1],44
same,IC50,[2]; [19],0.03 µM
same,Selectivity Index DU145,[2],41
same,IC50,[3]; [20],0.017 µM
same,Selectivity Index MCF-7,[3],71
same,IC50,[4]; [21],1.24 µM
O=C(CCCCC[C@H](NC(=O)c1ccc(Br)cc1)C(=O)Nc1ccc(-c2ccccc2)cc1)NO [Example 161],IC50,MM96L melanoma cells; [14],0.074 µM
same,IC50,MM96L melanoma cells; [15],0.121 µM
same,SI (Selectivity Index = IC50 (NFF)/IC50 (MM96L)),MM96L melanoma cells,2.5
same,Selectivity Index MM96L,MM96L melanoma cells,1.5
same,IC50,PC-3 cells,531 nM
same,Selectivity Index PC-3,PC-3 cells,0.3
same,IC50,H520 cells,117 nM
same,Selectivity Index H520,H520 cells,1.6
same,IC50,HOP62 cells,261 nM
same,Selectivity Index HOP62,HOP62 cells,0.7
same,IC50,T-47D cells,197 nM
same,Selectivity Index T-47D,T-47D cells,0.9
same,IC50,HT29 cells,307 nM
same,Selectivity Index HT29,HT29 cells,0.6
same,IC50,A549 cells,335 nM
same,Selectivity Index A549,A549 cells,0.6
same,IC50,SK-MEL-5 cells,102 nM
same,Selectivity Index SK-MEL-5,SK-MEL-5 cells,1.8
same,IC50,Col208 cells,272 nM
same,Selectivity Index Col208,Col208 cells,0.6
same,IC50,SkMel28 melanoma cells; [16],0.168 µM
same,Selectivity Index SK-MEL-28,SkMel28 melanoma cells,1.1
same,IC50,JAM ovarian cancer cells; [17],0.182 µM
same,Selectivity Index JAM,JAM ovarian cancer cells,1.0
same,IC50,[1]; [18],0.158 µM
same,Selectivity Index CI80-13S,[1],1.2
same,IC50,[2]; [19],0.149 µM
same,Selectivity Index DU145,[2],1.2
same,IC50,[3]; [20],0.149 µM
same,Selectivity Index MCF-7,[3],1.2
same,IC50,[4]; [21],0.185 µM
